Where two headings read alike, the source gives them in different places.
Tests used:
Test in all cases: Kinase panel
Type in all cases: biochemical
[1] = target: ZAP70 (Homo sapiens, UniProt P43403); settings: ZAP70, 1 µM; read-out: residual enzyme activity
Summary of the method: (§1)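 Compound at 1 µM was screened against a complete panel of purified kinases in biochemical format. Activity left after treatment was calculated and kinases inhibited by 60% or more were selected.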

[2] = target: MLK1/MAP3K9 (Homo sapiens, UniProt P80192); settings: MLK1/MAP3K9, 1 µM; read-out: residual enzyme activity
Summary of the method: as §1

[3] = target: FGFR3 (Homo sapiens, UniProt P22607); settings: FGFR3, 1 µM; read-out: residual enzyme activity
Summary of the method: as §1

[4] = target: MRCKA/CDC42BPA (Homo sapiens, UniProt Q5VT25); settings: read-out: residual enzyme activity
Summary of the method: as §1

[5] = target: CAMK1A (Homo sapiens, UniProt Q14012); settings: read-out: residual enzyme activity
Summary of the method: as §1

[6] = target: RIPK5 (Homo sapiens, UniProt Q6XUX3); settings: RIPK5, 1 µM; read-out: residual enzyme activity
Summary of the method: as §1

[7] = target: TAK1 (Homo sapiens, UniProt O43318); settings: TAK1, 1 µM; read-out: residual enzyme activity
Summary of the method: as §1

[8] = target: PAK2 (Homo sapiens, UniProt Q13177); settings: PAK2, 1 µM; read-out: residual enzyme activity
Summary of the method: as §1

[9] = target: YES/YES1 (Homo sapiens, UniProt P07947); settings: YES/YES1, 1 µM; read-out: residual enzyme activity
Summary of the method: as §1

[10] = target: P38D/MAPK13 (Homo sapiens, UniProt O15264); settings: read-out: residual enzyme activity
Summary of the method: as §1

[11] = target: CAMK2D (Homo sapiens, UniProt Q13557); settings: read-out: residual enzyme activity
Summary of the method: as §1

[12] = target: IRAK4 (Homo sapiens, UniProt Q9NWZ3); settings: IRAK4, 1 µM; read-out: residual enzyme activity
Summary of the method: as §1

[13] = target: EPHA2 (Homo sapiens, UniProt P29317); settings: EPHA2, 1 µM; read-out: residual enzyme activity
Summary of the method: as §1

[14] = target: PLK3 (Homo sapiens, UniProt Q9H4B4); settings: PLK3, 1 µM; read-out: residual enzyme activity
Summary of the method: as §1

[15] = target: LCK2/ICK (Homo sapiens, UniProt Q9UPZ9); settings: read-out: residual enzyme activity
Summary of the method: as §1

[16] = target: FLT4/VEGFR3 (Homo sapiens, UniProt P35916); settings: FLT4/VEGFR3, 1 µM; read-out: residual enzyme activity
Summary of the method: as §1

[17] = target: ABL1 (Homo sapiens, UniProt P00519); settings: ABL1, 1 µM; read-out: residual enzyme activity
Summary of the method: as §1

[18] = target: DMPK2 (Homo sapiens, UniProt Q6DT37); settings: DMPK2, 1 µM; read-out: residual enzyme activity
Summary of the method: as §1

[19] = target: PKCETA (Homo sapiens, UniProt P24723); settings: read-out: residual enzyme activity
Summary of the method: as §1

[20] = target: AXL (Homo sapiens, UniProt P30530); settings: read-out: residual enzyme activity
Summary of the method: as §1

[21] = target: ULK2 (Homo sapiens, UniProt Q8IYT8); settings: ULK2, 1 µM; read-out: residual enzyme activity
Summary of the method: as §1

[22] = target: EPHB1 (Homo sapiens, UniProt P54762); settings: EPHB1, 1 µM; read-out: residual enzyme activity
Summary of the method: as §1

[23] = target: PKCEPSILON (Homo sapiens, UniProt Q02156); settings: read-out: residual enzyme activity
Summary of the method: as §1

[24] = target: PDGFRA (Homo sapiens, UniProt P16234); settings: read-out: residual enzyme activity
Summary of the method: as §1

[25] = target: CK1G2 (Homo sapiens, UniProt P78368); settings: read-out: residual enzyme activity
Summary of the method: as §1

[26] = target: TYRO3/SKY (Homo sapiens, UniProt Q06418); settings: read-out: residual enzyme activity
Summary of the method: as §1

[27] = target: TRKA (Homo sapiens, UniProt P04629); settings: read-out: residual enzyme activity
Summary of the method: as §1

[28] = target: TNK1 (Homo sapiens, UniProt Q13470); settings: TNK1, 1 µM; read-out: residual enzyme activity
Summary of the method: as §1

[29] = target: CK2A (Homo sapiens, UniProt P68400); settings: read-out: residual enzyme activity
Summary of the method: as §1

[30] = target: BMPR2 (Homo sapiens, UniProt Q13873); settings: BMPR2, 1 µM; read-out: residual enzyme activity
Summary of the method: as §1

[31] = target: CDK1/CYCLIN B (Homo sapiens, UniProt P06493); settings: read-out: residual enzyme activity
Summary of the method: as §1

[32] = target: PKCMU/PRKD1 (Homo sapiens, UniProt Q15139); settings: PKCmu/PRKD1, 1 µM; read-out: residual enzyme activity
Summary of the method: as §1

[33] = target: STK21/CIT (Homo sapiens, UniProt O14578); settings: read-out: residual enzyme activity
Summary of the method: as §1

[34] = target: FGR (Homo sapiens, UniProt P09769); settings: read-out: residual enzyme activity
Summary of the method: as §1

STK21/CIT, sequence (O14578 whole entry): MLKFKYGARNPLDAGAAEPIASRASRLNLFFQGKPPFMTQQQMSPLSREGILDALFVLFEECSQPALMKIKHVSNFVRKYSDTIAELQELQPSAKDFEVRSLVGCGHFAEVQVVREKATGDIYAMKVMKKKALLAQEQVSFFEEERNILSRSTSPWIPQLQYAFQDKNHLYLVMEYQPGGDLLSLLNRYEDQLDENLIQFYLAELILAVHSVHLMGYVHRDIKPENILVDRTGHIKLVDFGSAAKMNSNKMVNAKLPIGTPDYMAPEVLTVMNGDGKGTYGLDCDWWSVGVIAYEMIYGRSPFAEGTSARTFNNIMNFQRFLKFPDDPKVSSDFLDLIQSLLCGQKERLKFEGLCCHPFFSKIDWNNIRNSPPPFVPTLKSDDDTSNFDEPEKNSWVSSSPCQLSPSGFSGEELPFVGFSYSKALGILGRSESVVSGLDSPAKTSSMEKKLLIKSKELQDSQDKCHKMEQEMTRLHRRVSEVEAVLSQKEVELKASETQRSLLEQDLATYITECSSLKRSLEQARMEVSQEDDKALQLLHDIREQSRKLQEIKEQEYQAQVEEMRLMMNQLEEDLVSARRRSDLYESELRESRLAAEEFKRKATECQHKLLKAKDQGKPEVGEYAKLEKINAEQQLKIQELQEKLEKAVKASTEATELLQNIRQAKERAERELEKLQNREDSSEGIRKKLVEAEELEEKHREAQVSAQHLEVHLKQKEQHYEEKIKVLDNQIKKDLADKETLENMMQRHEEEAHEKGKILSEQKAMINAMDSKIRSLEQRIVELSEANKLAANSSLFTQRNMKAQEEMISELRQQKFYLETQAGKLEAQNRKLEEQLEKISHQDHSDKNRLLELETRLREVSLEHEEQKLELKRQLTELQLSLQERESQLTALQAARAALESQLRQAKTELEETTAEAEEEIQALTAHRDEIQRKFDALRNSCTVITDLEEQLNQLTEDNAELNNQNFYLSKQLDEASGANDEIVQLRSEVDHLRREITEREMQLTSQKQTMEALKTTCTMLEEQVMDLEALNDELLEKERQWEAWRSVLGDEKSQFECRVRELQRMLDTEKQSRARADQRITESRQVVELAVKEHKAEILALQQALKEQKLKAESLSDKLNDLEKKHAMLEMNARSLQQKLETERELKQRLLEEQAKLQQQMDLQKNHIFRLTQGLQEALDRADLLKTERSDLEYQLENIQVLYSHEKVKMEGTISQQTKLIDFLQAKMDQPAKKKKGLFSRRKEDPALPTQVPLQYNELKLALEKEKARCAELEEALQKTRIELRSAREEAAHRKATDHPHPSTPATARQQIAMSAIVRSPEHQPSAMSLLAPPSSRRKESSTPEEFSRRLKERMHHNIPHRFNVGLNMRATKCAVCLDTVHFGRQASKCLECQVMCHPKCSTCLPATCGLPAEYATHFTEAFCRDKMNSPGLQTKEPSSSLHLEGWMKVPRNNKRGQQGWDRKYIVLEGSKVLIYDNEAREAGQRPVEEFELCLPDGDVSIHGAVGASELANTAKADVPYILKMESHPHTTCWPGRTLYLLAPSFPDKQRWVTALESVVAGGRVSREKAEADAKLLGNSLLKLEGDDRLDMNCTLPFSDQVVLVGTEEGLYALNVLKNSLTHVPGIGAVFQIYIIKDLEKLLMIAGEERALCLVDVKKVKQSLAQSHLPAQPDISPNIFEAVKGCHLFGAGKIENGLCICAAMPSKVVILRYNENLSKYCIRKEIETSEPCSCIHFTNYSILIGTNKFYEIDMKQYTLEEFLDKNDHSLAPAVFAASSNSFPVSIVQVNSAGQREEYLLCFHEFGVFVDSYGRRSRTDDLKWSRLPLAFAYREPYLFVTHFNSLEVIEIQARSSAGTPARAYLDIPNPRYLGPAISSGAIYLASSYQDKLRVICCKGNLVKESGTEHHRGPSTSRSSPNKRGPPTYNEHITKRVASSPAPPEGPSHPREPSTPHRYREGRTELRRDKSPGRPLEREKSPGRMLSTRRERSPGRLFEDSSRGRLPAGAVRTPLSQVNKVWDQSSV
EPHB1, sequence (P54762 18-984, species assumed): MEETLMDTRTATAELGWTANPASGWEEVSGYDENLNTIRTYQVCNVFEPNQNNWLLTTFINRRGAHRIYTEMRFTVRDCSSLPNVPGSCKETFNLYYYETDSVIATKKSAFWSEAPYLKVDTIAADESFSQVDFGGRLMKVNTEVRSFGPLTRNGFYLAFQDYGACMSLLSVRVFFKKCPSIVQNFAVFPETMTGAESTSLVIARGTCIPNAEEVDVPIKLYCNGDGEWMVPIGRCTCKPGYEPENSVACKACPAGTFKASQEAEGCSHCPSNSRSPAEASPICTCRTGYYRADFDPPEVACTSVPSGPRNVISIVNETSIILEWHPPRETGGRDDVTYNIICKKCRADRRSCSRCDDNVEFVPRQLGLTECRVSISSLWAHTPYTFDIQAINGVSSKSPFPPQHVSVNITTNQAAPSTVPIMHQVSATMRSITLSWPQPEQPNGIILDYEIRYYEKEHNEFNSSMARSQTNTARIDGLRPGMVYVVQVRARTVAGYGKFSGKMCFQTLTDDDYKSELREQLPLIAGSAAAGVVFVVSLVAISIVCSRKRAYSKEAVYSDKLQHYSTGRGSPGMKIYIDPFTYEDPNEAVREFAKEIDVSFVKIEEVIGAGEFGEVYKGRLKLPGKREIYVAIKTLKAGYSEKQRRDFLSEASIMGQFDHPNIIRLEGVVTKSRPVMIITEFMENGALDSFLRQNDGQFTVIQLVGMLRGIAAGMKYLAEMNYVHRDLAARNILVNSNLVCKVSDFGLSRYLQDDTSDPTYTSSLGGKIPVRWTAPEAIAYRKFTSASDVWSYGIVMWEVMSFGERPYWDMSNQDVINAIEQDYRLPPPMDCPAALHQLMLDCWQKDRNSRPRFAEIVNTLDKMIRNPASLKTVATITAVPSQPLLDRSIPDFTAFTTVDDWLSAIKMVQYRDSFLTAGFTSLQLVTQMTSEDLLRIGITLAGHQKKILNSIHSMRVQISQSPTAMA
FGR, sequence (P09769 whole entry, species assumed): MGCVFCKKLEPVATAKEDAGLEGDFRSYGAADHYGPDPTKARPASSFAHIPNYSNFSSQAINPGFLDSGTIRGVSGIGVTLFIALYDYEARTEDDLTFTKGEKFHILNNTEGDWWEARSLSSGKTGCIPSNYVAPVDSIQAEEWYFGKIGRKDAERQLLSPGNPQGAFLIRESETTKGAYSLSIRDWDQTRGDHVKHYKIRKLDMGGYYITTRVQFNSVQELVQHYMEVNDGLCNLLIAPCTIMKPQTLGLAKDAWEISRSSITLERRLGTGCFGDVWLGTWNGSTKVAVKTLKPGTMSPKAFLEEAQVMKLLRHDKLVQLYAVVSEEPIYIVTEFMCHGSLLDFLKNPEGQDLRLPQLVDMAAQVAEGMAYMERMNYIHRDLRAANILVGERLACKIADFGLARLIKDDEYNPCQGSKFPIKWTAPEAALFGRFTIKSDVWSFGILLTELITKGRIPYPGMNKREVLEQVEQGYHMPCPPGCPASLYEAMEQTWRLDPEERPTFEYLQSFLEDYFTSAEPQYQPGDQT
TRKA, sequence (P04629 33-796, species assumed): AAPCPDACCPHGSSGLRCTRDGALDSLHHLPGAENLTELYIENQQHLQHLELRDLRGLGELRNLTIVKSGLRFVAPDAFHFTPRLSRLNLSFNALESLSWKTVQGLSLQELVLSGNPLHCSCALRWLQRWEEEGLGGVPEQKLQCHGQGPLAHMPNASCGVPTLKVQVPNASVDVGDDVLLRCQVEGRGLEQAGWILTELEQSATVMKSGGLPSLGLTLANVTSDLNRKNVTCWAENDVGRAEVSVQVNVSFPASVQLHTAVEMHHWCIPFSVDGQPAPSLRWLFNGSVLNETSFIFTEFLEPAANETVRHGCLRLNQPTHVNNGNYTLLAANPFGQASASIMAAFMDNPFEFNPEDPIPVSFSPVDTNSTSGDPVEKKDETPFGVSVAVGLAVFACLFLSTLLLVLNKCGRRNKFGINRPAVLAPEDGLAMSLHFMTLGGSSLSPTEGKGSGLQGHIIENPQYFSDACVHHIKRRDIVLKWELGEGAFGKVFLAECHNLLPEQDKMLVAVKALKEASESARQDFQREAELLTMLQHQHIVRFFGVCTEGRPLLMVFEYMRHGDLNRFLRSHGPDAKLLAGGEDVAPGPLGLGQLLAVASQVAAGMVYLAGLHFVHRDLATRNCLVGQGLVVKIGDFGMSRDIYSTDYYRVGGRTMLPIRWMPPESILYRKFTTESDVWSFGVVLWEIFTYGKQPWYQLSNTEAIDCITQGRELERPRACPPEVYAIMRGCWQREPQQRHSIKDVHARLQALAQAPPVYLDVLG
TAK1, sequence (O43318 1-303 limits assumed): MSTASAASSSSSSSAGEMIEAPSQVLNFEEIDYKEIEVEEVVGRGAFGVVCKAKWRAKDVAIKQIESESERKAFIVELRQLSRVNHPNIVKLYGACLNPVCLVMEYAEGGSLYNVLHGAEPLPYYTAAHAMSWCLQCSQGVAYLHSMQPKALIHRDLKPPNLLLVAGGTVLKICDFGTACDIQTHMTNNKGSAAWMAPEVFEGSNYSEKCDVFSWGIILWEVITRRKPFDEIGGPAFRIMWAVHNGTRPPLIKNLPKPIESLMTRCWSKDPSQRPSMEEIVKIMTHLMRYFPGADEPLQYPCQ
CAMK2D, sequence (Q13557 whole entry, species assumed): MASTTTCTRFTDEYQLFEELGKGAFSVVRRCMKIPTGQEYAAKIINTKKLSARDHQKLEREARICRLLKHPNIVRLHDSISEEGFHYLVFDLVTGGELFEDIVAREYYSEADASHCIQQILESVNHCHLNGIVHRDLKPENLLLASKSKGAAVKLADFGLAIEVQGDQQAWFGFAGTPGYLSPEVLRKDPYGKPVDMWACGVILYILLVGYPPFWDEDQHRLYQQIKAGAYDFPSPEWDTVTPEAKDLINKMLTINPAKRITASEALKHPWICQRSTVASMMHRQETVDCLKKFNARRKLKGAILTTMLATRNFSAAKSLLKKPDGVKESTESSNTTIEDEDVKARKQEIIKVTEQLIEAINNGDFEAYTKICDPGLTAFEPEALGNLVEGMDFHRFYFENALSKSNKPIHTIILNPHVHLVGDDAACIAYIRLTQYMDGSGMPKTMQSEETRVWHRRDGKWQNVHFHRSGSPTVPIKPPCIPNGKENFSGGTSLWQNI

Cc1cn(-c2cc(C(=O)Nc3ccc(C)c(N4Cc5cnc(NC6CC6)nc5C5(CC5)C4=O)c3)cc(C(F)(F)F)c2)cn1 [Compound 8, N-(3-(2'-(cyclopropylamino)-7'-oxo-5'H-spiro[cyclopropane-1,8'-pyrido[4,3-d]pyrimidine]-6'(7'H)-yl)-4-methylphenyl)-3-(4-methyl-1H-imidazol-1-yl)-5-(trifluoromethyl)benzamide]
remaining activity at 1 µM [1]: > 40%
remaining activity at 1 µM [2]: > 40%
remaining activity at 1 µM [3]: ≤ 40%
remaining activity at 1 µM [4]: > 40%
remaining activity at 1 µM ([5]; CAMK1A): > 40%
remaining activity at 1 µM [6]: > 40%
remaining activity at 1 µM [7]: ≤ 40%
remaining activity at 1 µM [8]: > 40%
remaining activity at 1 µM [9]: ≤ 40%
remaining activity at 1 µM ([10]; P38D/MAPK13, 1 µM): > 40%
remaining activity at 1 µM ([11]; CAMK2D): > 40%
remaining activity at 1 µM [12]: > 40%
remaining activity at 1 µM [13]: ≤ 40%
remaining activity at 1 µM [14]: > 40%
remaining activity at 1 µM [15]: > 40%
remaining activity at 1 µM [16]: ≤ 40%
remaining activity at 1 µM [17]: ≤ 40%
remaining activity at 1 µM [18]: > 40%
remaining activity at 1 µM [19]: > 40%
remaining activity at 1 µM [20]: > 40%
remaining activity at 1 µM [21]: > 40%
remaining activity at 1 µM [22]: ≤ 40%
remaining activity at 1 µM [23]: > 40%
remaining activity at 1 µM [24]: ≤ 40%
remaining activity at 1 µM ([25]; CK1G2, 1 µM): > 40%
remaining activity at 1 µM [26]: > 40%
remaining activity at 1 µM [27]: ≤ 40%
remaining activity at 1 µM [28]: ≤ 40%
remaining activity at 1 µM ([29]; CK2A): > 40%
remaining activity at 1 µM [30]: > 40%
remaining activity at 1 µM [31]: > 40%
remaining activity at 1 µM [32]: > 40%
remaining activity at 1 µM [33]: > 40%
remaining activity at 1 µM [34]: ≤ 40%

Cc1ccc(Nc2ncc3c(n2)C2(CC2)C(=O)N(c2cc(NC(=O)c4cccc(C(F)(F)F)c4)ccc2C)C3)cn1 [Compound 51, N-(4-methyl-3-(2'-((6-methylpyridin-3-yl)amino)-7'-oxo-5'H-spiro[cyclopropane-1,8'-pyrido[4,3-d]pyrimidine]-6'(7'H)-yl)phenyl)-3-(trifluoromethyl)benzamide]
remaining activity at 1 µM [1]: > 40%
remaining activity at 1 µM [2]: ≤ 40%
remaining activity at 1 µM [3]: ≤ 40%
remaining activity at 1 µM [4]: > 40%
remaining activity at 1 µM ([5]; CAMKla): > 40%
remaining activity at 1 µM [6]: > 40%
remaining activity at 1 µM [7]: ≤ 40%
remaining activity at 1 µM [8]: > 40%
remaining activity at 1 µM [9]: ≤ 40%
remaining activity at 1 µM ([10]; P38d/MAPK13, 1 µM): > 40%
remaining activity at 1 µM ([11]; CAMK2d): > 40%
remaining activity at 1 µM [12]: > 40%
remaining activity at 1 µM [13]: ≤ 40%
remaining activity at 1 µM [14]: > 40%
remaining activity at 1 µM [15]: > 40%
remaining activity at 1 µM [16]: ≤ 40%
remaining activity at 1 µM [17]: ≤ 40%
remaining activity at 1 µM [18]: > 40%
remaining activity at 1 µM [19]: > 40%
remaining activity at 1 µM [20]: > 40%
remaining activity at 1 µM [21]: > 40%
remaining activity at 1 µM [22]: ≤ 40%
remaining activity at 1 µM [23]: > 40%
remaining activity at 1 µM [24]: ≤ 40%
remaining activity at 1 µM ([25]; CKlg2, 1 µM): > 40%
remaining activity at 1 µM [26]: ≤ 40%
remaining activity at 1 µM [27]: ≤ 40%
remaining activity at 1 µM [28]: ≤ 40%
remaining activity at 1 µM ([29]; CK2a): > 40%
remaining activity at 1 µM [30]: > 40%
remaining activity at 1 µM [31]: > 40%
remaining activity at 1 µM [32]: > 40%
remaining activity at 1 µM [33]: > 40%
remaining activity at 1 µM [34]: ≤ 40%
